Results taken from patent publication US20100056516A1 (priority 2006, published 2010).

How the values were obtained:
HIV integrase = HIV integrase (Human immunodeficiency virus type 1 group M subtype B, UniProt P04585); test: integrase strand transfer assay (STA); type: biochemical; conditions: integrase strand transfer; read-out: IC50 in the STA assay
HXB2 virus = test: microbe, parasite or virus in culture; type: cell-based, HIV; conditions: Human immunodeficiency virus 1, HXB2, HeLaP4-2, read-out: antiviral IC50 (SCIA-B)
Procedure, shortened: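 Single-cycle infectivity assay in HeLa P4-2 cells measuring inhibition of acute HIV infection, using HXB2 virus.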

Structure (SMILES)	IC50 (HIV integrase) [µM]	IC50 (HXB2 virus) [µM]
CCOC(=O)c1c(O)c2cc(C(=O)NCc3ccccc3OC)cnc2n(O)c1=O [Example 79, Ethyl 1,4-dihydroxy-6-{[2-methoxybenzyl)amino] carbonyl}-2-oxo-1,2-dihydro-1,8-naphthyridine-3-carboxylate]	< 50	< 100
CCOC(=O)c1c(O)c2cc(C(=O)N(C)Cc3ccccc3)cnc2n(O)c1=O [Example 80, Ethyl 6-{[benzyl(methyl)amino]carbonyl}-1,4-dihydroxy-2-oxo-1,2-dihydro-1,8-naphthyridine-3-carboxylate]	< 50	< 100
CCOC(=O)c1c(O)c2cc(C(=O)N3CCCCC3CCc3ccccc3)cnc2n(O)c1=O (stereo not drawn) [Example 82, Ethyl 1,4-dihydroxy-2-oxo-6-{[2-(2-phenylethyl)piperidin-1-yl]carbonyl}-1,2-dihydro-1,8-naphthyridine-3-carboxylate]	< 50	< 100
CCOC(=O)c1c(O)c2cc(C(=O)N3CCC(CCCc4ccccc4)CC3)cnc2n(O)c1=O [Example 83, Ethyl 1,4-dihydroxy-2-oxo-6-{[4-(3-phenylpropyl)piperidin-1-yl]carbonyl}-1,2-dihydro-1,8-naphthyridine-3-carboxylate]	< 50	< 100
CCOC(=O)c1c(O)c2cc(C(=O)N3CCC(CCc4ccccc4)CC3)cnc2n(O)c1=O [Example 84, Ethyl 1,4-dihydroxy-2-oxo-6-{[4-(2-phenylethyl)piperidin-1-yl]carbonyl}-1,2-dihydro-1,8-naphthyridine-3-carboxylate]	< 50	< 100
CCOC(=O)c1c(O)c2cc(C(=O)N3CCC(Cc4ccccc4)C3)cnc2n(O)c1=O (stereo not drawn) [Example 85, Ethyl 6-[(3-benzylpyrrolidin-1-yl)carbonyl]-1,4-dihydroxy-2-oxo-1,2-dihydro-1,8-naphthyridine-3-carboxylate]	< 50	< 100
CCOC(=O)c1c(O)c2cc(C(=O)NC3CCCCC3)cnc2n(O)c1=O [Example 86, ethyl-6-[(cyclohexylamino)carbonyl]-1,4-dihydroxy-2-oxo-1,2-dihydro-1,8-naphthyridine-3-carboxylate]	< 50	< 100
O=C(NCc1ccccc1)c1cnc2c(c1)c(O)c(C(=O)NCc1ccccc1)c(=O)n2O [Example 87, N,N′-Dibenzyl-1,4-dihydroxy-2-oxo-1,2-dihydro-1,8-naphthyridine-3,6-dicarboxamide]	< 50	< 100
CCOC(=O)c1ccnc2c1c(O)cc(=O)n2O [Example 88, Ethyl 5,8-dihydroxy-7-oxo-7,8-dihydro-1,8-naphthyridine-4-carboxylate]	< 50	< 100
CCOC(=O)c1c(O)c2cc(Oc3ccc(N)cc3)cnc2n(O)c1=O [Example 89, Ethyl 6-(4-aminophenoxy)-1,4-dihydroxy-2-oxo-1,2-dihydro-1,8-naphthyridine-3-carboxylate]	< 50	< 100
CCOC(=O)c1c(O)c2cc(Oc3ccc(N(CC)CC)cc3)cnc2n(O)c1=O [Example 90, Ethyl 6-[4-(diethylamino)phenoxy]-1,4-dihydroxy-2-oxo-1,2-dihydro-1,8-naphthyridine-3-carboxylate]	< 50	< 100
COC(=O)c1cnc2c(c1)c(O)c(C(=O)NCc1ccccc1)c(=O)n2O [Example 91, Methyl 6-[(benzylamino)carbonyl]-5,8-dihydroxy-7-oxo-7,8-dihydro-1,8-naphthyridine-3-carboxylate]	< 50	< 100
CCOC(=O)c1cnc2c(c1)c(O)c(C(=O)NCc1ccccc1)c(=O)n2O [Example 92, Ethyl 6-[(benzylamino)carbonyl]-5,8-dihydroxy-7-oxo-7,8-dihydro-1,8-naphthyridine-3-carboxylate]	< 50	< 100
CC(=O)c1c(O)c2cccnc2n(O)c1=O [Example 93, 3-acetyl-1,4-dihydroxy-1,8-naphthyridin-2(1H)-one]	> 50	< 100
Cc1n[nH]c2c1c(=O)n(O)c1ncccc21 [Example 94, 5-Hydroxy-3-methyl-1,5-dihydro-4H-pyrazolo[4,3-c]-1,8-naphthyridin-4-one]	< 50	< 100
O=c1c(-c2ccccc2)c(O)c2cc(S(=O)(=O)Nc3ccccc3)cnc2n1O [Example 95, 5,8-Dihydroxy-7-oxo-N,6-diphenyl-7,8-dihydro-1,8-naphthyridine-3-sulfonamide]	< 50	< 100
O=c1c(-c2ccccc2)c(O)c2cc(S(=O)(=O)NCc3ccccc3)cnc2n1O [Example 96, N-benzyl-5,8-dihydroxy-7-oxo-6-phenyl-7,8-dihydro-1,8-naphthyridine-3-sulfonamide]	< 50	< 100
CCOC(=O)c1c(N)c2cccnc2n(O)c1=O [Example 97, Ethyl 4-amino-1-hydroxy-2-oxo-1,2-dihydro-1,8-naphthyridine-3-carboxylate]	< 50	< 100
CCOC(=O)c1c(N)c2cc(-c3ccccc3)cnc2n(O)c1=O [Example 98, Ethyl 4-amino-1-hydroxy-2-oxo-6-phenyl-1,2-dihydro-1,8-naphthyridine-3-carboxylate]	< 50	< 100
Nc1cc(=O)n(O)c2ncccc12 [Example 99, 4-Amino-1-hydroxy-1,8-naphthyridin-2(1H)-one]	< 50	< 100

Structure (SMILES)	IC50 (HIV integrase) [µM]	IC50 (HXB2 virus) [µM]
CC(=O)Nc1cc(=O)n(O)c2ncccc12 [Example 100, N-(1-Hydroxy-2-oxo-1,2-dihydro-1,8-naphthyridin-4-yl)acetamide]	< 50	< 100
O=C(Cc1ccccc1)Nc1cc(=O)n(O)c2ncccc12 [Example 101, N-(1-Hydroxy-2-oxo-1,2-dihydro-1,8-naphthyridin-4-yl)-2-phenylacetamide]	< 50	< 100
O=C(Nc1cc(=O)n(O)c2ncccc12)c1ccccc1 [Example 102, N-(1-Hydroxy-2-oxo-1,2-dihydro-1,8-naphthyridin-4-yl)benzamide]	< 50	< 100
O=c1cc(Nc2ccccc2)c2cccnc2n1O [Example 103, 4-Anilino-1-hydroxy-1,8-naphthyridin-2(1H)-one]	< 50	< 100
O=c1cc(Nc2ccccc2-c2ccccc2)c2cccnc2n1O [Example 104, 4-(Biphenyl-2-ylamino)-1-hydroxy-1,8-naphthyridin-2(1H)-one]	< 50	< 100
O=c1cc(Nc2cccc(-c3ccccc3)c2)c2cccnc2n1O [Example 105, 4-(Biphenyl-3-ylamino)-1-hydroxy-1,8-naphthyridin-2(1H)-one]	< 50	< 100
O=c1cc(NC(CN2CCOCC2)c2ccccc2)c2cccnc2n1O (stereo not drawn) [Example 107, 1-Hydroxy-4-[(2-morpholin-4-yl-1-phenylethyl)amino]-1,8-naphthyridin-2(1H)-one]	< 50	< 100
O=c1cc(NC2CCN(Cc3ccccc3)CC2)c2cccnc2n1O [Example 108, 4-[(1-Benzylpiperidin-4-yl)amino]-1-hydroxy-1,8-naphthyridin-2(1H)-one]	< 50	< 100
CCOC(=O)N1CCC(Nc2cc(=O)n(O)c3ncccc23)CC1 [Example 109, Ethyl 4-[(1-hydroxy-2-oxo-1,2-dihydro-1,8-naphthyridin-4-yl)amino]piperidine-1-carboxylate]	< 50	< 100
O=c1cc(NCC(c2ccccc2)N2CCOCC2)c2cccnc2n1O (stereo not drawn) [Example 110, 1-Hydroxy-4-[(2-morpholin-4-yl-2-phenylethyl)amino]-1,8-naphthyridin-2(1H)-one]	< 50	< 100
O=c1cc(NC2CCN(Cc3ccccc3)C2)c2cccnc2n1O (stereo not drawn) [Example 112, 4-[(1-Benzylpyrrolidin-3-yl)amino]-1-hydroxy-1,8-naphthyridin-2(1H)-one]	< 50	< 100
O=c1cc(N[C@@H]2CCN(Cc3ccccc3)C2)c2cccnc2n1O [Example 113, 4-{[(3R)-1-Benzylpyrrolidin-3-yl]amino}-1-hydroxy-1,8-naphthyridin-2(1H)-one]	< 50	< 100
O=c1cc(N[C@H]2CCN(Cc3ccccc3)C2)c2cccnc2n1O [Example 114, 4-{[(3S)-1-Benzylpyrrolidin-3-yl]amino}-1-hydroxy-1,8-naphthyridin-2(1H)-one]	< 50	< 100
CN(Cc1cccc(Cn2cncn2)c1)c1cc(=O)n(O)c2ncccc12 [Example 116]	< 50	< 100
O=c1cc(N2CCC[C@@H]2CF)c2cccnc2n1O [Example 117, 4-[(2R)-2-(fluoromethyl)pyrrolidin-1-yl]-1-hydroxy-1,8-naphthyridin-2(1H)-one]	< 50	< 100
O=c1cc(N2CCCC(F)C2)c2cccnc2n1O (stereo not drawn) [Example 118, 4-(3-fluoropiperidin-1-yl)-1-hydroxy-1,8-naphthyridin-2(1H)-one]	< 50	< 100
O=c1cc(N2CCc3ccccc3C2)c2cccnc2n1O [Example 119, 4-(3,4-dihydroisoquinolin-2(1H)-yl)-1-hydroxy-1,8-naphthyridin-2(1H)-one]	< 50	< 100
N#Cc1ccc2c(c1)CN(c1cc(=O)n(O)c3ncccc13)CC2 [Example 120, 2-(1-hydroxy-2-oxo-1,2-dihydro-1,8-naphthyridin-4-yl)-1,2,3,4-tetrahydroisoquinoline-7-carbonitrile]	< 50	< 100
COC(=O)c1ccc2c(c1)CN(c1cc(=O)n(O)c3ncccc13)CC2 [Example 122, 4-[7-(methoxycarbonyl)-3,4-dihydroisoquinolin-2(1H)-yl]-1-hydroxy-1,8-naphthyridin-2(1H)-one]	< 50	< 100
